Measurements as given in US20250352544A1, “TREATMENT OF MUSCLE ATROPHY USING GSK-3 INHIBITORS” (Technion Research & Development Foundation Limited, priority 2024, published 2025).
Entries after “also recorded” stand apart in the source; their conditions may differ. Non-standard residues stand in square brackets, D forms with d. *: point of attachment. Myristoyl = CCCCCCCCCCCCCC(=O)*; pS = N[C@@H](COP(=O)(O)O)C(=O)O

What was measured:
[1] = test system: fasting (atrophy-induced) mice, Tibialis Anterior (TA) muscle; experiment: Fasting-induced muscle atrophy in mice treated with GSK-3 inhibitors; type: in vivo; conditions: for TA muscle weight (muscle atrophy): i.p. 0.5 mg CHIR98014 or 0.3 mg L803mts per mouse on day 1 and day 2 of fasting, vs fed and fasting vehicle controls (FIG. 3)
Excerpt: All animal experiments were consistent with Israel Council on Animal Experiments guidelines and the Institutional Regulations of Animal Care and Use. Specialized personnel provided mice care in the institutional animal facility. In fasting (2 d) experiments, food was removed from cages on the fifth day after electroporation.
Mice were divided into two groups: those subjected to fasting to induce muscle atrophy, and those that were fed and used as fed control. Mice of the fasting group were injected intraperitoneally with either CHIR98014 or L803mts to examine their effect on muscle wasting. Control groups (Fed, fasting) were injected with vehicle (3% DMSO in saline). Each mouse (27-30 grams body weight) was injected with 0.3 mg L803mts or 0.5 mg CHIR98014, twice: on the first and then on the second day of fasting. Whole Tibilis anterior (TA) muscles were then collected and the weight loss in these samples over 2 days was measured.
Tideglusib (4.35 mg/ml) was mixed with 26% PEG400 (v/v), 15% Cremophor EL (v/v), and 59% ddH2O (v/v), to a total volume of 2.3 ml. Each mouse received 200 microliter (μL) (0.87 mg Tideglusib) of the solution on the first day of fasting, and 150 μL (0.65 mg Tideglusib) on the second day.
Then, the efficacy of CHIR99021, another exemplary ATP-competitive GSK3β inhibitor, was evaluated. To this, fasting (atrophy-induced) mice were injected intraperitoneally with 16 mg/kg CHIR99021 (200 μL per mouse) on day 1 and on day 2 of fasting. At the end of the experiment, mice were sacrificed, and their tibialis anterior (TA) muscles were dissected and weighed, in comparison with fed mice and untreated fasting (atrophy-induced) mice.

GSK-3 = conditions: background statement; cited from earlier work

Molecule	effect on muscle atrophy (body weight and TA muscle to body weight ratio) ([1]; 2-day fasting mice, Tideglusib via gavage, 0.87 mg on day 1 and 0.65 mg on day 2 (20-30 mg/kg) (FIGS. 4A-B))	TA muscle weight (muscle atrophy) ([1]; 2-day fasting mice)	GSK-3 inhibition, potency and selectivity (GSK-3)	TA muscle weight (muscle loss) ([1]; fasting mice, CHIR99021 16 mg/kg i.p. on day 1 and day 2 of fasting, data not shown, 16 mg/kg)
O=c1sn(-c2cccc3ccccc23)c(=O)n1Cc1ccccc1 [Tideglusib]	minimal effect on preventing muscle atrophy; also recorded: minor effect in treating muscle atrophy	–	–	–
Nc1nc(NCCNc2ncc(-n3ccnc3)c(-c3ccc(Cl)cc3Cl)n2)ccc1[N+](=O)[O-] [CHIR98014]	–	no reduction in muscle weight compared to control; also recorded: completely prevented the reduction in muscle mass	highly potent and selective inhibitors of GSK-3	–
Myr-Gly-Lys-Glu-Ala-Pro-Pro-Ala-Pro-Pro-Gln-{Ser(p)}-Pro-NH2 (Myristoyl-GKEAPPAPPQ[pS]P-NH2; SMILES CCCCCCCCCCCCCC(=O)NCC(=O)N[C@@H](CCCCN)C(=O)N[C@@H](CCC(=O)O)C(=O)N[C@@H](C)C(=O)N1CCC[C@H]1C(=O)N1CCC[C@H]1C(=O)N[C@@H](C)C(=O)N1CCC[C@H]1C(=O)N1CCC[C@H]1C(=O)N[C@@H](CCC(N)=O)C(=O)N[C@@H](COP(=O)(O)O)C(=O)N1CCC[C@H]1C(N)=O) [L803-mts]	–	attenuation in muscle weight; also recorded: inferior activity to that of CHIR98014	–	–
Cc1c[nH]c(-c2cnc(NCCNc3ccc(C#N)cn3)nc2-c2ccc(Cl)cc2Cl)n1 [CHIR99021]	–	–	highly potent and selective inhibitors of GSK-3	did not mitigate this muscle loss; also recorded: inferior activity
